Patent publication US20220378688A1, “Moisturizing or anti-atopic composition containing fatty acids or fatty acid derivatives” (DAEBONG LS, LTD, priority 2019, published 2022)
Where “and” joins values, the source holds several entries; their conditions need not be identical. Identical values can stand only once.

Assays:
Format in all cases: cell-based, human
HaCaT cells = assay: Cytotoxicity assessment, EZ-Cytox assay, HaCaT cell growth rate; conditions: untreated = 100
Protocol: HaCaT cells, which are human epidermal keratinocytes, were distributed from Dr. C. G. Hyun (Jeju National University, Korea) and Dulbecco's Modified Eagle's Medium (DMEM) medium containing 100 units/ml of penicillin-streptomycin and 10% by volume of fetal bovine serum (FBS) was used and cultured at 37° C. and 5% CO2 incubator. Subculture was performed at intervals of 3 to 4 days.
The EZ-cytox assay is a representative method for measuring cell viability using the principle that water solution tetrazolium salt (WST) reacts with dehydrogenase of living cells to generate orange water-soluble formazan.
HaCaT cells were aliquoted in a 96-well plate at 1.0×10^4 cells/mL using DMEM medium supplemented with 10% by volume of FBS to check cytotoxicity and then cultured at 37° C., 5% CO2 condition for 18 hours. The cultured HaCaT cells were exchanged with serum-free DMEM to treat the extract to be evaluated. After that, EZ-cytox was added to each well and reacted for 30 minutes at 37° C. and 5% CO2, and absorbance was measured at 450 nm using a microplate reader. The average absorbance value for each sample group was obtained, and the cell viability was evaluated by comparing it with the absorbance value of the control group.

hyaluronic acid = assay: Hyaluronic acid production in HaCaT cells (ELISA); conditions: 24 hours, untreated = 100
Protocol: HaCaT cells were aliquoted in a 24-well plate at 1.0×10^5 cells/mL and cultured at 37° C., 5% CO2 conditions for 18 hours. It was replaced with a serum-free DMEM medium, and the samples in Table 2 were treated and cultured for 24 hours. After that, the culture medium was removed, centrifuged at 15,000 rpm for 5 minutes, and the supernatant was removed and stored frozen (−20° C.) until quantification. As a control group, a sample treated with retinoic acid (RA) at a concentration of 10 μM was used. Enzyme-Linked Immunosorbent Assay (ELISA) was performed using a hyaluronic acid ELISA kit (Elabscience Biotechnology Co., Ltd) and the method provided by the manufacturer.

[1] = test system: thymus and activation regulated chemokine (TARC); assay: TARC production inhibitory activity in HaCaT cells (ELISA); conditions: IFN (30 ng/ml) + TNF (30 ng/ml) stimulated = 100
Protocol: In order to confirm the atopic treatment effect on the carrot stems and leaves extract according to the present disclosure, atopic thymus and activation regulated chemokine (TARC) was analyzed.
HaCaT cells were aliquoted in a 24-well plate at 1.5×10^5 cells/mL and cultured at 37° C., 5% CO2 conditions for 18 hours. […] Then, the atopic chemokine production content of the supernatant obtained by centrifugation of the culture medium (12,000 rpm, 3 min) was measured. All samples were stored frozen (−20° C.) until quantification. For TARC content, a human enzyme-linked immunosorbent assay (ELISA) kit (R&D Systems Inc., Minneapolis, Minn., USA) was used, and the r^2 value of the standard curve for the standard was 0.99 or more.

Filaggrin = assay: Skin barrier strengthening: filaggrin production in HaCaT cells (ELISA); conditions: 10 μM, 24 hours, untreated = 100
Protocol: HaCaT cells were aliquoted in a 24-well plate at 1.0×10^5 cells/mL and cultured at 37° C., 5% CO2 conditions for 18 hours. It was exchanged with serum-free DMEM, and the carrot stems and leaves extracts and roots extracts of the samples in Table 2 were treated and cultured for 24 hours. After removing the culture medium and washing with PBS for each group, PBS is containing no drug that may affect protein quantification was treated. The protein was collected after lysing the cells by repeating low-temperature and room-temperature incubation. As a control group, a sample treated with retinoic acid (RA) at a concentration of 10 μM was used. Quantification was performed using the Filaggrin-ELISA kit (Elabscience Biotechnology Co., Ltd) and was performed by the method provided by the manufacturer.

SMILES	HaCaT cell growth rate (%) (HaCaT cells; 12.5 μM)	HaCaT cell growth rate (%) (HaCaT cells; 25 μM)	HaCaT cell growth rate (%) (HaCaT cells; 50 μM)	HaCaT cell growth rate (%) (HaCaT cells; 100 μM)	HA production (%) (hyaluronic acid; 25 μM)	HA production (%) (hyaluronic acid; 50 μM)	HA production (%) (hyaluronic acid; 100 μM)	TARC production (%) ([1]; 12.5 μM)	TARC production (%) ([1]; 25 μM)	TARC production (%) ([1]; 50 μM)	FLG production (%) (Filaggrin)	HaCaT cell growth rate (%) (HaCaT cells; 10 μM)	HA production (%) (hyaluronic acid; 10 μM)
CC/C=C\C/C=C\C/C=C\CCCCCCCC(=O)O [α-Linolenic acid, α-linolenic acid]	97.8 ± 3.6	96.1 ± 4.4	92.1 ± 3.9	106.9 ± 1.0	105.0 ± 0.06	110.5 ± 0.02	116.3 ± 0.26	72.6 ± 0.03	45.6 ± 0.51	35.7 ± 1.44	–	–	–
CCCCC/C=C\C/C=C\CCCCCCCC(=O)OCC [Ethyl linoleate, ethyl linoleate]	92.5 ± 3.0	92.3 ± 2.0	88.9 ± 2.3	94.1 ± 3.0	92.7 ± 0.27	85.5 ± 0.27	89.5 ± 0.07	78.3 ± 0.10	53.8 ± 0.16	42 ± 0.81	–	–	–
CCCCC/C=C\C/C=C\CCCCCCCC(=O)OC[C@@H](O)CO (racemic) [Monolinolein]	106.0 ± 2.6	102.2 ± 1.0	101.5 ± 1.7	122.6 ± 2.1	102.7 ± 0.14	113.7 ± 0.14	114.4 ± 0.05	75.2 ± 0.07	37.7 ± 1.59	30.9 ± 1.97	–	–	–
CC1=C(/C=C/C(C)=C/C=C/C(C)=C/C(=O)O)C(C)(C)CCC1 [Retinoic acid, retinoic acid, reference compound]	–	–	–	–	–	–	–	–	–	–	157.5 ± 0.13	103.8 ± 2.1	153.1 ± 0.14% and 100.0 ± 0.36%
